According to EP0184861A1, “Derivatives of the 3-mercapto-2-oxo-1-pyrrolidinacetic acid, process for their preparation and pharmaceutical compositions containing them” (PROTER S.p.A., priority 1984, dated 1986):

Experiments:
4% mucin suspension = experiment: mucolithic activity "in vitro" with a 4% mucin suspension (viscosity reduction); type: biochemical; settings: molar concentration 0,012 M
Description: The 3-mercapto-2-oxo-1-pyrrolidinyl acetic acid (V) and its derivatives are endowed with interesting phamacological properties; particularly they are endowed with a relevant mucolithic, expectorant and anti-cough activity and moreover show a very low toxicity.

[1] = system: fluid of the respiratory tract; experiment: expectorant activity: fluorescein elimination in the fluid of the respiratory tract; type: in vivo; settings: in comparison to the controls; dose 1 mM/kg/os
[2] = acute toxicity in the mouse; settings: in vivo, male and female mouse
Description: (§1) Thanks to their pharmacological properties and to the absence of toxicity, the compounds of formula I and their possible pharmaceutically acceptable salts may be used as drugs in the treatment of diseases of the respiratory tract.

[3] = acute toxicity in the rat; settings: in vivo, male and female rat
Description: as §1

[4] = tested after a suitable hydrolysis of the thioester

| Structure (SMILES) | viscosity reduction (4% mucin suspension) [%] | increases of escretion of the colouring matter [1] [%] | LD50 ([2]; ip) [mg/kg] | LD50 ([2]; oral route) [mg/kg] | LD50 ([3]; ip) [mg/kg] | LD50 ([3]; oral route) [mg/kg] | viscosity reduction (4% mucin suspension; [4]) [%] |
| --- | --- | --- | --- | --- | --- | --- | --- |
| CC(=O)N[C@@H](CS)C(=O)O [N-acetyl-L-cysteine, reference compound] | 12.69 | 29.63 | – | – | – | – | – |
| O=C(O)CN1CCC(S)C1=O (stereo not drawn) [V, 3-mercapto-2-oxo-1-pyrrolidinyl acetic acid] | 20.95 | 52.92 | > 2000 | > 3000 | > 1500 | > 5000 | – |
| O=C(O)CN1CCC(SC(=O)c2cccs2)C1=O (stereo not drawn) [VI, 3-(2-thenoylthio)-2-oxo-1-pyrrolidinyl acetic acid] | – | 54.26 | > 2000 | > 3000 | > 1500 | > 5000 | 18.22 |
| O=C(O)CN1CCC(SC(=O)c2ccccc2)C1=O (stereo not drawn) [VII, 3-benzoylthio-2-oxo-l-pyrrolidinyl acetic acid] | – | – | – | – | – | – | 16.13 |
